For experiment [1], the system named is IICR (IP3 induced calcium release) in CHO cells. As to the kind of experiment: Assay of IICR (IP3 induced calcium release)-inhibiting action. Format: cell-based, Chinese hamster. The conditions noted are these: Cricetulus griseus, CHO, CHO cells, 10 μM ATP, read-out: IICR level (percentage of inhibition); for inhibition at 10 µM: test compound 10 μmol; for inhibition at 30 µM: test compound 30 μmol; for inhibition at 100 µM: test compound 100 μmol. The method in brief: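 CHO cell medium replaced with calcium-containing BSS; compound added 1 min later, then 10 μM ATP after a further 2 min. Percent inhibition of the ATP-evoked rise in intracellular calcium determined at each compound concentration.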

Experiment [2] relates to SOCE (store operated calcium entry) in CHO cells. As to the kind of experiment: Assay of SOCE (store operated calcium entry)-inhibiting action. It is filed as cell-based, Chinese hamster. The conditions noted are these: Cricetulus griseus, CHO, CHO cells, thapsigargin, read-out: SOCE level (percentage of inhibition); for inhibition at 10 µM: test compound 10 μmol; for inhibition at 30 µM: test compound 30 μmol; for inhibition at 100 µM: test compound 100 μmol. The method in brief: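 CHO cells in calcium-free BSS received compound, then 1 μM thapsigargin 2 min later to deplete stores; after 9 min, 2 mM calcium chloride (final) added. Percent inhibition of the rise in intracellular calcium determined at various compound concentrations.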

The text below walks through data of US8937091B2 (Japan Science and Technology Agency, priority 2009, dated 2015).

The structures appear in SMILES notation.

Take `CC(C)N(CCC(=O)c1ccsc1)Cc1ccccc1` [Example 222, 2-(N-isopropylbenzyl)aminoethyl-3-thiophenylketone]: in experiment [1], the inhibition (usually the change of the read-out against control, counted positive when it falls) at 10 µM is 0%; the inhibition at 30 µM is 30%; the inhibition at 100 µM stood at 80%. Besides, in experiment [2], the inhibition at 10 µM turned out to be 0%, the inhibition at 30 µM was determined as 0% and the inhibition at 100 µM stood at 10%.
For the compound `O=C(CCNCCc1ccccc1)c1ccsc1` [Example 223, 2-(N-phenethyl)aminoethyl-3-thiophenylketone], in experiment [1], the inhibition at 10 µM amounted to 0%, the inhibition at 30 µM stood at 0% and the inhibition at 100 µM is 0%. For the same compound, in experiment [2], the inhibition at 10 µM stood at 0%, the inhibition at 30 µM is 10% and the inhibition at 100 µM came to 20%.
Turning to `CC(C)N(CCC(=O)n1ccnc1)Cc1ccccc1` [Example 224, 2-(N-isopropylbenzyl)aminoethyl-1-imidazolylketone], in experiment [1], the inhibition at 10 µM was found to be 20%, the inhibition at 30 µM was found to be 20% and the inhibition at 100 µM came out at 0%. Also, in experiment [2], the inhibition at 10 µM came to 0%, the inhibition at 30 µM came out at 0% and the inhibition at 100 µM is 20%.
Turning to `Cc1cc(C(=O)CCN(Cc2ccccc2)C(C)C)oc1C` [Example 225, 2-(N-isopropylbenzyl)aminoethyl-4,5-dimethyl-2-furylketone], in experiment [1], the inhibition at 10 µM was found to be 20%, the inhibition at 30 µM came out at 30% and the inhibition at 100 µM was 90%. In experiment [2], the inhibition at 10 µM was found to be 10%, the inhibition at 30 µM is 30% and the inhibition at 100 µM turned out to be 70%.
For the compound `CCN(CCO)CCC(=O)c1cc(C)c(C)o1` [Example 226, 2-(N-2-hydroxyethylethyl)aminoethyl-4,5-dimethyl-2-furylketone], in experiment [1], the inhibition at 10 µM came out at 0%, the inhibition at 30 µM turned out to be 0% and the inhibition at 100 µM was determined as 50%. In experiment [2], the inhibition at 10 µM is 0%, the inhibition at 30 µM is 0% and the inhibition at 100 µM was determined as 0%.
Turning to `Cc1cc(C(=O)CCN(CCO)Cc2ccccc2)oc1C` [Example 227, 2-(N-2-hydroxyethylbenzyl)aminoethyl-4,5-dimethyl-2-furylketone], in experiment [1], the inhibition at 10 µM came to 20%, the inhibition at 30 µM came to 0% and the inhibition at 100 µM came to 20%. For the same compound, in experiment [2], the inhibition at 10 µM was found to be 0%, the inhibition at 30 µM amounted to 0% and the inhibition at 100 µM amounted to 0%.
With `CCN(CCO)CCC(=O)c1cc(C)sc1C` [Example 228, 2-(N-2-hydroxyethylethyl)aminoethyl-2,5-dimethyl-3-thiophenylketone], in experiment [1], the inhibition at 10 µM worked out at 20%, the inhibition at 30 µM turned out to be 0% and the inhibition at 100 µM stood at 20%. For the same compound, in experiment [2], the inhibition at 10 µM stood at 0%, the inhibition at 30 µM worked out at 0% and the inhibition at 100 µM turned out to be 20%.
For `Cc1cc(C(=O)CCN(CCO)CCO)c(C)s1` [Example 229, 2-(N,N-bis-2-hydroxyethyl)aminoethyl-2,5-dimethyl-3-thiophenylketone], in experiment [1], the inhibition at 10 µM is 0%, the inhibition at 30 µM was 0% and the inhibition at 100 µM turned out to be 0%. For the same compound, in experiment [2], the inhibition at 10 µM was determined as 0%, the inhibition at 30 µM came to 0% and the inhibition at 100 µM stood at 0%.
With `Cc1cc(C(=O)CCN(CCO)C(C)C)c(C)s1` [Example 230, 2-(N-2-hydroxyethylisopropyl)aminoethyl-2,5-dimethyl-3-thiophenylketone], in experiment [1], the inhibition at 10 µM stood at 0%, the inhibition at 30 µM amounted to 0% and the inhibition at 100 µM was found to be 20%. In experiment [2], the inhibition at 10 µM turned out to be 0%, the inhibition at 30 µM came to 0% and the inhibition at 100 µM stood at 0%.
Regarding `CC(C)(C)N(CCC(=O)c1cccnc1)Cc1ccccc1` [Example 231, 2-(N-benzyl-t-butyl)aminoethyl-3-pyridylketone], in experiment [1], the inhibition at 10 µM turned out to be 20%, the inhibition at 30 µM worked out at 90% and the inhibition at 100 µM is 100%. Also, in experiment [2], the inhibition at 10 µM came to 0%, the inhibition at 30 µM was determined as 0% and the inhibition at 100 µM worked out at 0%.
In the case of `CC(C)(C)N(CCO)CCC(=O)c1cccnc1` [Example 232, 2-(N-t-butyl-2-hydroxyethyl)aminoethyl-3-pyridylketone], in experiment [1], the inhibition at 10 µM worked out at 0%, the inhibition at 30 µM worked out at 10% and the inhibition at 100 µM turned out to be 10%. Besides, in experiment [2], the inhibition at 10 µM is 0%, the inhibition at 30 µM was 0% and the inhibition at 100 µM came to 0%.
In the case of `CN(CCC(=O)c1ccco1)Cc1ccccc1` [Example 233, 2-(N-benzylmethyl)aminoethyl-2-furylketone], in experiment [1], the inhibition at 10 µM stood at 30%, the inhibition at 30 µM was 70% and the inhibition at 100 µM was found to be 80%. In experiment [2], the inhibition at 10 µM came out at 0%, the inhibition at 30 µM worked out at 0% and the inhibition at 100 µM is 10%.
In the case of `CCCCN(CCO)CCC(=O)c1ccco1` [Example 234, 2-(N-2-hydroxyethylbutyl)aminoethyl-2-furylketone], in experiment [1], the inhibition at 10 µM came out at 0%, the inhibition at 30 µM was 70% and the inhibition at 100 µM was 80%. Also, in experiment [2], the inhibition at 10 µM was found to be 0%, the inhibition at 30 µM was determined as 0% and the inhibition at 100 µM was 10%.
Turning to `CN(CCO)CCC(=O)c1ccco1` [Example 235, 2-(N-2-hydroxyethylmethyl)aminoethyl-2-furylketone], in experiment [1], the inhibition at 10 µM is 0%, the inhibition at 30 µM turned out to be 90% and the inhibition at 100 µM turned out to be 80%. For the same compound, in experiment [2], the inhibition at 10 µM amounted to 0%, the inhibition at 30 µM came to 0% and the inhibition at 100 µM is 0%.
As to `CN(CCC(=O)c1ccsc1)Cc1ccccc1` [Example 236, 2-(N-benzylmethyl)aminoethyl-3-thiophenylketone], in experiment [1], the inhibition at 10 µM is 10%, the inhibition at 30 µM was found to be 10% and the inhibition at 100 µM is 80%. In experiment [2], the inhibition at 10 µM was 0%, the inhibition at 30 µM was determined as 0% and the inhibition at 100 µM came to 20%.
For the compound `CC(C)(C)N(CCC(=O)c1ccsc1)Cc1ccccc1` [Example 238, 2-(N-benzyl-t-butyl)aminoethyl-3-thiophenylketone], in experiment [1], the inhibition at 10 µM came out at 10%, the inhibition at 30 µM was determined as 0% and the inhibition at 100 µM came to 0%. Further, in experiment [2], the inhibition at 10 µM was 0%, the inhibition at 30 µM worked out at 0% and the inhibition at 100 µM was determined as 0%.
In the case of `CCN(CCC(=O)c1ccc(C)o1)Cc1ccccc1` [Example 239, 2-(N-benzylethyl)aminoethyl-5-methyl-2-furylketone], in experiment [1], the inhibition at 10 µM was 0%, the inhibition at 30 µM was 50% and the inhibition at 100 µM was determined as 80%. Also, in experiment [2], the inhibition at 10 µM came out at 0%, the inhibition at 30 µM came to 0% and the inhibition at 100 µM was found to be 10%.
Regarding `Cc1ccc(C(=O)CCN(CCO)C(C)(C)C)o1` [Example 240, 2-(N-2-hydroxyethyl-t-butyl)aminoethyl-5-methyl-2-furylketone], in experiment [1], the inhibition at 10 µM was found to be 10%, the inhibition at 30 µM amounted to 30% and the inhibition at 100 µM came out at 50%. In experiment [2], the inhibition at 10 µM was found to be 0%, the inhibition at 30 µM came out at 0% and the inhibition at 100 µM is 0%.
For the compound `Cc1ccc(C(=O)CCN(C)Cc2ccccc2)o1` [Example 241, 2-(N-benzylmethyl)aminoethyl-5-methyl-2-furylketone], in experiment [1], the inhibition at 10 µM was found to be 0%, the inhibition at 30 µM amounted to 0% and the inhibition at 100 µM was 70%. Besides, in experiment [2], the inhibition at 10 µM was 0%, the inhibition at 30 µM is 0% and the inhibition at 100 µM was determined as 10%.
For `CCN(CCC(=O)c1ccccn1)Cc1ccccc1` [Example 242, 2-(N-benzylethyl)aminoethyl-2-pyridylketone], in experiment [1], the inhibition at 10 µM was determined as 30%, the inhibition at 30 µM was found to be 80% and the inhibition at 100 µM was 90%. For the same compound, in experiment [2], the inhibition at 10 µM stood at 0%, the inhibition at 30 µM was 0% and the inhibition at 100 µM was 0%.
In the case of `O=C(CCN(CCO)CCO)c1ccccn1` [Example 243, 2-(N-bis-2-hydroxyethyl)aminoethyl-2-pyridylketone], in experiment [1], the inhibition at 10 µM worked out at 0%, the inhibition at 30 µM is 0% and the inhibition at 100 µM is 50%. In experiment [2], the inhibition at 10 µM turned out to be 0%, the inhibition at 30 µM was 0% and the inhibition at 100 µM was 0%.
`CC(C)(C)N(CCO)CCC(=O)c1ccccn1` [Example 244, 2-(N-t-butyl-2-hydroxyethyl)aminoethyl-2-pyridylketone]: in experiment [1], the inhibition at 10 µM turned out to be 0%, the inhibition at 30 µM is 0% and the inhibition at 100 µM was determined as 0%. For the same compound, in experiment [2], the inhibition at 10 µM was 0%, the inhibition at 30 µM was 0% and the inhibition at 100 µM was 0%.
